These results are taken from US6664271B1, “Immunopotentiator agents” (Eli Lilly and Company, priority 1999, dated 2003).

Marks after values point to notes of the source that are not given here.

One data set relates to E. coli. The data set can be described thus: colibacillosis infection model in broiler chickens, Trial B (Example 78). In kind it is in vivo, chicken.
The test system of data set [1] is mononuclear leukocytes. The data set can be described thus: mammalian T-lymphocyte blastogenesis assay, canine (Example 75). In kind it is cell-based. The method, then: (§1) The compound prepared in Example 30, namely (S)-ethyl 1-(2-thiopheneacetyl)-3-peridinecarboxylate, was further evaluated for in vitro T-lymphocyte blastogenic activity from mammalian species other than avian.
(§2) The mammalian blastogenesis assays were conducted with the same protocol as the vian assays with the following exceptions:
(§3) 1. Only mononuclear leukocytes are used for the mammalian assay. The cells are obtained from whole blood by differential centrifugation using Histopague 1.077 (Sigma Chemical Company, St. Louis, Mo).
(§4) 2. 0.5% Fetal Bovine Serum (FBS) [GIBCOBRL, Grand Island N.Y.] is added to RPMI 1640 medium. Exception: Non-human primate plasma is used instead of FBS at 5 ml/liter to RPMI 1640 medium.
(§5) 3. 5×10^5 cells/well were used with the mammalian assays.

The test system of data set [2] is mononuclear leukocytes. Put plainly: mammalian T-lymphocyte blastogenesis assay, bovine (Example 75). It counts as cell-based. The method, then:
as §1, §2, §3, §4, §5

Data set [3] deals with mononuclear leukocytes. The data set can be described thus: mammalian T-lymphocyte blastogenesis assay, non-human primate (Example 75). In kind it is cell-based. The method, then: as §1, §2, §3, §4, §5

Regarding `CCOC(=O)[C@H]1CCCN(C(=O)Cc2cccs2)C1` [Example 30, (S)-Ethyl 1-(2-Thiopheneacetyl)-3-piperidinecarboxylate], in the data set on E. coli (2 μg/chick subcutaneous), the “% Colibacillosis-associated Mortality” value was determined as 5%, the “Average Weight Gain/Bird (lbs)” value is 2.53 lb (1.15 kg) and the Feed/Gain worked out at 1.56. In addition, in the data set with E. coli (12.5 μg/chick subcutaneous), the “% Colibacillosis-associated Mortality” value is reported as 2.8* %, the “% Total Mortality” value was 10* %, the “Average Weight Gain/Bird (lbs)” value was 2.44 lb (1.11 kg) and the Feed/Gain worked out at 1.59. Further, in the data set on E. coli (25 μg/chick subcutaneous), the “% Colibacillosis-associated Mortality” value worked out at 6.8%, the “% Total Mortality” value is 14.3%, the “Average Weight Gain/Bird (lbs)” value is given as 2.49 lb (1.13 kg) and the Feed/Gain was determined as 1.57. For the same compound, in the data set with mononuclear leukocytes [1], the MSC is 1 μg μg/ml and the MTC worked out at 100 µg/mL. Further, in the data set with mononuclear leukocytes [2], the MSC came to 10 μg μg/ml and the MTC was determined as 1 mg/mL. In the data set with mononuclear leukocytes [3], the MSC stood at 10 μg μg/ml and the MTC amounted to 1 mg/mL.
